Source: the NIST ThermoML archive (doi:10.1021/je901020a)

What was measured:
[1] = xn = mol fraction of the nth substance listed; settings: 101 kPa, Liquid; for speed of sound: Pulse-echo method
[2] = refractive index (Na D-line) (dimensionless); xn = mol fraction of the nth substance listed; settings: 101 kPa, Liquid, Standard Abbe refractometry

C1CCCCCCC1 [cyclooctane] + Cc1cc(C)cc(C)c1
Settings | mass density, [1] [kg/m3] | refractive index, [2] | speed of sound, [1] [m/s]
298.15 K, x1 = 0.0496 | 858.9 | 1.49453 | 1338
298.15 K, x1 = 0.1026 | 856.8 | 1.49198 | 1339
298.15 K, x1 = 0.2035 | 852.7 | 1.48725 | 1341
298.15 K, x1 = 0.307 | 848.8 | 1.48253 | 1345
298.15 K, x1 = 0.4062 | 845.2 | 1.47807 | 1349
298.15 K, x1 = 0.5042 | 841.9 | 1.47384 | 1354
298.15 K, x1 = 0.598 | 839 | 1.46995 | 1359
298.15 K, x1 = 0.696 | 836.2 | 1.46606 | 1366
298.15 K, x1 = 0.8308 | 833.3 | 1.46115 | 1376
298.15 K, x1 = 0.8926 | 832.3 | 1.45905 | 1381
298.15 K, x1 = 0.9484 | 831.7 | 1.45738 | 1386
298.15 K, x1 = 1 | 831.5 | 1.45598 | 1391
313.15 K, x1 = 0.0517 | 846.6 | 1.48694 | 1277
313.15 K, x1 = 0.0872 | 845.2 | 1.48532 | 1278
313.15 K, x1 = 0.1842 | 841.3 | 1.48082 | 1280
313.15 K, x1 = 0.2935 | 837.2 | 1.4759 | 1283
313.15 K, x1 = 0.3891 | 833.8 | 1.47166 | 1287
313.15 K, x1 = 0.4882 | 830.4 | 1.46743 | 1291
313.15 K, x1 = 0.5857 | 827.5 | 1.4634 | 1296
313.15 K, x1 = 0.6847 | 824.6 | 1.45952 | 1302
313.15 K, x1 = 0.791 | 822.1 | 1.45559 | 1309
313.15 K, x1 = 0.8911 | 820.3 | 1.45214 | 1317
313.15 K, x1 = 0.939 | 819.7 | 1.45053 | 1321
313.15 K, x1 = 1 | 819.2 | 1.44877 | 1325

C1CCCC1 [cyclopentane] + Cc1ccccc1C
Settings | mass density, [1] [kg/m3] | refractive index, [2] | speed of sound, [1] [m/s]
298.15 K, x1 = 0.045 | 870.7 | 1.49951 | 1342
298.15 K, x1 = 0.0924 | 865.7 | 1.49549 | 1336
298.15 K, x1 = 0.1949 | 854.1 | 1.48698 | 1319
298.15 K, x1 = 0.2932 | 842.5 | 1.4791 | 1304
298.15 K, x1 = 0.3903 | 830.4 | 1.47003 | 1289
298.15 K, x1 = 0.4954 | 816.6 | 1.46059 | 1273
298.15 K, x1 = 0.594 | 802.9 | 1.4507 | 1259
298.15 K, x1 = 0.6958 | 788.1 | 1.43935 | 1244
298.15 K, x1 = 0.7939 | 773 | 1.42832 | 1231
298.15 K, x1 = 0.8926 | 757.3 | 1.41649 | 1217
298.15 K, x1 = 0.9503 | 747.9 | 1.40949 | 1210
298.15 K, x1 = 1 | 740 | 1.40292 | 1204
313.15 K, x1 = 0.072 | 855 | 1.48922 | 1277
313.15 K, x1 = 0.0931 | 852.7 | 1.48739 | 1274
313.15 K, x1 = 0.1919 | 841.5 | 1.47936 | 1257
313.15 K, x1 = 0.2934 | 829.3 | 1.47048 | 1241
313.15 K, x1 = 0.3772 | 818.8 | 1.46299 | 1227
313.15 K, x1 = 0.4855 | 804.6 | 1.45278 | 1209
313.15 K, x1 = 0.5894 | 790.1 | 1.44238 | 1192
313.15 K, x1 = 0.685 | 776.2 | 1.43216 | 1177
313.15 K, x1 = 0.8099 | 756.9 | 1.41833 | 1158
313.15 K, x1 = 0.8912 | 743.6 | 1.40862 | 1146
313.15 K, x1 = 0.9479 | 734.1 | 1.402 | 1138
313.15 K, x1 = 1 | 725 | 1.39456 | 1130
